Calls of active or inactive are those of the source. The rule behind the calls is not given here.

Data on three molecules can be found in ChEMBL document CHEMBL1141272, “Eujavanicols A-C, decalin derivatives from Eupenicillium javanicum” (J Nat Prod, 2007).

The test system of the test is Aspergillus fumigatus. The test can be described thus: Antifungal activity against Aspergillus fumigatus. The test is classed as functional, organism-based.
Turning to `CC[C@@H](C)[C@H]1C=C[C@H]2[C@H](O)[C@@H](O)C[C@@H](C)[C@@H]2[C@@]1(C)C(=O)CCO`, the result was inactive.

As for `CC[C@@H](C)C1=CC(=O)[C@H]2[C@H](O)[C@H](O)C[C@@H](C)[C@@H]2[C@@]1(C)C(=O)CCO`, the outcome was inactive.

`CC[C@@H](C)[C@H]1C=C[C@H]2[C@H](O)[C@H](O)C[C@@H](C)[C@@H]2[C@@]1(C)C(=O)CCO`: the result was inactive.
